Reference: ChEMBL document CHEMBL5727696, “Tetrahydroisoquinoline derived PRMT5-inhibitors” (2020)

Experiment: Revised Biochemical Assay: Full-length PRMT5 enzyme (NCBI Reference sequence NP_006100.2) was co-expressed with Hiss-MEP50 in insect cells and purified via Nickel immobilized metal affinity and gel filtration chromatography (“the enzyme”).The 6 μL reactions are run in Greiner brand black 384-well low volume assay plates. All reactions contained assay buffer (phosphate buffered saline, 0.01% (v/v) Tween-20, 0.01% (w/v) albumin from chicken egg white, 1 mM Dithiothreitol, 1 μM peptide substrate, 1 μM S-Adenosyl methionine, and 15 ng/reaction enzyme, with the enzyme being omitted from negative control reactions. Compounds were added in a volume of 100 nL from dilution series prepared in DMSO, positive and negative control reactions receiving the same volume DMSO without compound. The plates were sealed with adhesive seals and incubated for 4 hours at 37 degree Celsius. Reaction progress was measured using the Transcreener™ EPIGEN methyltransferase assay (BellBrook Labs, Madison, Wis.) as recommended by the manufacturer. To each reaction 2 μL detection mix were added, containing coupling enzymes, fluorescence polarisation tracer, and AMP antibody. Plates were incubated for 90 minutes before being read on a PerkinElmer EnVision plate reader in fluorescence polarisation mode.

`N#Cc1ccc(C(=O)NCCC(O)CN2CCc3ccccc3C2)cc1` (stereo unspecified) showed an IC50 of 3.98 µM.
